Test results as given in the NIST ThermoML archive (doi:10.1021/je2007605).
Numbers after ± are expanded uncertainties.

Assays:
[1] = for Normal melting temperature: DTA
[2] = Molar enthalpy of transition or fusion; details: Crystal; DSC

COC(=O)c1ccc(C)cc1 [methyl 4-methylbenzoate]
[1], Closed cell (Static) method
Details | vapor or sublimation pressure [kPa]
269.27 K, Crystal | 0.0004 ± 9e-05
271.21 K, Crystal | 0.00052 ± 0.0001
273.18 K, Crystal | 0.00067 ± 0.0001
275.19 K, Crystal | 0.00087 ± 0.0001
277.14 K, Crystal | 0.00112 ± 0.0001
279.16 K, Crystal | 0.00145 ± 0.00011
281.08 K, Crystal | 0.00184 ± 0.00012
283.07 K, Crystal | 0.00235 ± 0.00013
285.08 K, Crystal | 0.003 ± 0.00015
287.05 K, Crystal | 0.00377 ± 0.00018
289.04 K, Crystal | 0.00475 ± 0.00021
291.04 K, Crystal | 0.00599 ± 0.00026
293.03 K, Liquid | 0.01066 ± 0.00043
293.04 K, Crystal | 0.00745 ± 0.00031
295.02 K, Crystal | 0.00939 ± 0.00038
295.08 K, Liquid | 0.0127 ± 0.00051
297.03 K, Crystal | 0.01167 ± 0.00047
297.05 K, Liquid | 0.01498 ± 0.00054
299.02 K, Crystal | 0.01451 ± 0.00054
299.04 K, Liquid | 0.01755 ± 0.00058
300.98 K, Crystal | 0.01795 ± 0.00059
301.03 K, Liquid | 0.02057 ± 0.00063
303 K, Liquid | 0.02404 ± 0.00068
305.03 K, Liquid | 0.02784 ± 0.00074
306.98 K, Liquid | 0.03242 ± 0.00081
308.97 K, Liquid | 0.03825 ± 0.0009
310.97 K, Liquid | 0.0434 ± 0.00098
312.95 K, Liquid | 0.05065 ± 0.0011
314.97 K, Liquid | 0.05815 ± 0.0012
316.99 K, Liquid | 0.06735 ± 0.0014
318.9 K, Liquid | 0.07685 ± 0.0015
320.95 K, Liquid | 0.08945 ± 0.0017
322.94 K, Liquid | 0.1009 ± 0.0019
324.92 K, Liquid | 0.1171 ± 0.0021
326.96 K, Liquid | 0.132 ± 0.002
328.85 K, Liquid | 0.151 ± 0.0022
330.92 K, Liquid | 0.1689 ± 0.0024
332.84 K, Liquid | 0.1934 ± 0.0026
334.91 K, Liquid | 0.2162 ± 0.0028
336.82 K, Liquid | 0.2454 ± 0.003
338.88 K, Liquid | 0.2748 ± 0.0033
340.75 K, Liquid | 0.31 ± 0.0036
342.8 K, Liquid | 0.3469 ± 0.0039
344.71 K, Liquid | 0.3884 ± 0.0043
346.77 K, Liquid | 0.4353 ± 0.0047
348.75 K, Liquid | 0.484 ± 0.0051

Details | Normal melting temperature [°C]
[1], Crystal | 31.94 ± 0.52

Details | Molar enthalpy of transition or fusion [kcal/mol]
[2] | 4.83 ± 0.215

COC(=O)c1ccc(N(C)C)cc1 [methyl 4-(dimethylamino)benzoate]
vapor or sublimation pressure [kPa], [1]
Details | Crystal | Liquid
311.12 K, Calculated from knudsen effusion weight loss | 8.2e-05 ± 2e-05 | –
313.19 K, Calculated from knudsen effusion weight loss | 0.000104 ± 2e-05 | –
315.17 K, Calculated from knudsen effusion weight loss | 0.000131 ± 2.1e-05 | –
317.11 K, Calculated from knudsen effusion weight loss | 0.000166 ± 2.1e-05 | –
319.18 K, Calculated from knudsen effusion weight loss | 0.000211 ± 2.1e-05 | –
323.12 K, Calculated from knudsen effusion weight loss | 0.000332 ± 2.3e-05 | –
324.96 K, Closed cell (Static) method | 0.00043 ± 0.00011 | –
325.18 K, Calculated from knudsen effusion weight loss | 0.000421 ± 2.5e-05 | –
326.93 K, Closed cell (Static) method | 0.00053 ± 0.00011 | –
327.16 K, Calculated from knudsen effusion weight loss | 0.000525 ± 2.7e-05 | –
328.93 K, Closed cell (Static) method | 0.00068 ± 0.00011 | –
329.11 K, Calculated from knudsen effusion weight loss | 0.000662 ± 3.1e-05 | –
330.9 K, Closed cell (Static) method | 0.00084 ± 0.00012 | –
331.17 K, Calculated from knudsen effusion weight loss | 0.000829 ± 3.6e-05 | –
332.91 K, Closed cell (Static) method | 0.00105 ± 0.00012 | –
333.16 K, Calculated from knudsen effusion weight loss | 0.001019 ± 7.9e-05 | –
334.88 K, Closed cell (Static) method | 0.0013 ± 0.00012 | –
336.89 K, Closed cell (Static) method | 0.00161 ± 0.00013 | –
338.85 K, Closed cell (Static) method | 0.00199 ± 0.00014 | –
340.86 K, Closed cell (Static) method | 0.00246 ± 0.00015 | –
342.81 K, Closed cell (Static) method | 0.00298 ± 0.00017 | –
344.83 K, Closed cell (Static) method | 0.00365 ± 0.00019 | –
346.78 K, Closed cell (Static) method | 0.00447 ± 0.00021 | –
348.79 K, Closed cell (Static) method | 0.00542 ± 0.00024 | –
350.75 K, Closed cell (Static) method | 0.00655 ± 0.00028 | –
352.74 K, Closed cell (Static) method | 0.00799 ± 0.00034 | –
352.78 K, Closed cell (Static) method | – | 0.01105 ± 0.00045
354.73 K, Closed cell (Static) method | 0.0096 ± 0.00039 | –
354.77 K, Closed cell (Static) method | – | 0.01276 ± 0.00051
356.72 K, Closed cell (Static) method | 0.01168 ± 0.00047 | –
356.75 K, Closed cell (Static) method | – | 0.01475 ± 0.00054
358.69 K, Closed cell (Static) method | 0.01403 ± 0.00053 | –
358.73 K, Closed cell (Static) method | – | 0.01697 ± 0.00058
360.68 K, Closed cell (Static) method | 0.01658 ± 0.00057 | –
360.72 K, Closed cell (Static) method | – | 0.01953 ± 0.00062
362.67 K, Closed cell (Static) method | 0.01987 ± 0.00062 | –
362.7 K, Closed cell (Static) method | – | 0.02236 ± 0.00066
364.65 K, Closed cell (Static) method | 0.02318 ± 0.00067 | –
364.68 K, Closed cell (Static) method | – | 0.02563 ± 0.00071
366.61 K, Closed cell (Static) method | 0.02725 ± 0.00074 | –
366.67 K, Closed cell (Static) method | – | 0.02928 ± 0.00077
368.66 K, Closed cell (Static) method | 0.03255 ± 0.00082 | 0.03341 ± 0.00083
370.64 K, Closed cell (Static) method | – | 0.03797 ± 0.0009
372.62 K, Closed cell (Static) method | – | 0.04321 ± 0.00098
374.62 K, Closed cell (Static) method | – | 0.04885 ± 0.0011
376.56 K, Closed cell (Static) method | – | 0.05553 ± 0.0012
378.53 K, Closed cell (Static) method | – | 0.0627 ± 0.0013
380.52 K, Closed cell (Static) method | – | 0.07058 ± 0.0014
382.5 K, Closed cell (Static) method | – | 0.07972 ± 0.0015
384.49 K, Closed cell (Static) method | – | 0.08949 ± 0.0017
386.42 K, Closed cell (Static) method | – | 0.1006 ± 0.0019
388.46 K, Closed cell (Static) method | – | 0.1126 ± 0.0021
390.44 K, Closed cell (Static) method | – | 0.1259 ± 0.0023

Details | Normal melting temperature [°C]
[1], Crystal | 98.14 ± 0.39

Details | Molar enthalpy of transition or fusion [kcal/mol]
[2] | 5.59 ± 0.12
